Results from patent US12064507B2, “Composition and method for oral treatment of leukemia” (Provectus Pharmatech, Inc., priority 2019, dated 2024).
Read-outs that look alike come from different tables or passages of the source. Where a SMILES comes first, the peptide text is derived from it. [ ]: non-standard residue; d: D form. The star is where a group is joined. Dolaproine = CO[C@@H]([C@@H]1CCCN1)[C@@H](C)C(=O)O; Dil = CC[C@H](C)[C@H](NC)[C@@H](CC(=O)O)OC; X1 = C[C@@H](N*)[C@@H](O)c1ccccc1; NMeV = CN[C@H](C(=O)O)C(C)C

Assays:
[1] = human, in vivo; cited from earlier work
[2] = tested on: SEM cells (human ALL cells labelled with GFP); experiment: survival of CB17 SCID mice with SEM leukemia xenograft, oral treatment; format: in vivo; settings: for survival / therapeutic activity in words: oral gavage twice weekly for two weeks, FIG. 1
Procedure: FIG. 1 is a graph showing survival of CB17 SCID mice from Charles River Laboratories International, Inc., treated with orally-administered rose bengal disodium. Exponentially-growing SEM cells (2.5×10^6 human ALL cells labelled with GFP) were injected intravenously into each animal and the establishment of tumors was monitored. After 4 weeks to permit the growth of the tumor, mice were randomized to three groups. Group 1 (n=9 control animals) received 100 μL of PBS given orally twice a week for two weeks. Group 2 (n=8 treatment Cohort I animals) received 25 μL of rose bengal disodium present at 10% w/v in 0.9% NaCl aqueous solution that was diluted in PBS to a final volume of 100 μL and given orally twice a week for 2 weeks. Group 3 (n=8 treatment Cohort II animals) received 12.5 μL of the above 10% w/v in 0.9% NaCl aqueous solution that was diluted in PBS to a final volume of 100 μL and administered orally twice a week for 2 weeks. […] Data are presented as Kaplan-Meier estimates.
Female C17 SCID mice from Charles River
The SEM cell line was initially established from a 5 year old female with B acute lymphoblastic leukemia. It carries the MLL-AFFF1 gene fusion and heterozygous for CDKN2A and TP53.
2.5×10^6 exponentially growing SEM cells [labelled with green fluorescent protein (GFP)] were injected intravenously into each animal and the establishment of tumors was monitored. After 4 weeks to permit the growth of the tumors, mice were randomized to three groups.
These animals received 100 μL of PBS given orally twice a week for two weeks.
These animals received 25 μL of PV-10® (10% rose bengal disodium w/v in 0.9 percent in aqueous saline) diluted in PBS to a final volume of 100 μL and given orally by gavage twice a week for 2 weeks.
These animals received 12.5 μL of PV-10® (as discussed above) diluted in PBS to a final volume of 100 μL and given orally by gavage twice a week for 2 weeks.
Data are presented in FIG. 1 as Kaplan-Meier estimates.

[3] = solubility and behaviour of HX compound forms in aqueous media; format: physicochemical; settings: solutions of disodium RB mixed in
Text: The dibasic salt forms of the HX compounds exist in solution having a pH greater than approximately 5, whereas at pH values<5 the HX compounds spontaneously convert to their lactone form. […] Thus, optimizing formulation to properly compensate for the pH value of the GI tract is perhaps the most important parameter affecting bioavailability. For example, in the stomach, where pH value<4, dissolved HX compound is rapidly converted to the insoluble lactone form.
For example, the highly acidic gastric environment (pH 1.5-2 in the fasted state; pH 3-6 in the fed state) rises rapidly to about pH 6 in the duodenum and increases along the small intestine to pH 7.4 at the terminal ileum. The pH value in the cecum drops just below pH 6 and again rises in the colon reaching pH 6.7 at the rectum [Hua, Front Pharmacol 11:Article 524 (April 2020)].

[4] = oral bioavailability, mass balance studies; format: in vivo; settings: aqueous solution, estimated from mass balance studies
Procedure: Bioavailability of RB disodium administered in aqueous solution via the oral route appears to be limited based on mass balance studies conducted by the inventors, and can be estimated at 0.1-1 percent, corresponding to a daily systemic exposure of 0.2-2 mg/kg. Presuming this amount is distributed through the bloodstream, and that blood volume comprises approximately 10 percent of body weight, this equates to an estimated concentration of 2-20 μM RB in the blood.

[5] = oral bioavailability, radiolabel studies with 14C-RB; format: in vivo; settings: 14C-RB in aqueous solution given orally to mice
Text: The bioavailability of various HX compounds such as disodium rose bengal has not been well characterized. Studies commissioned by one of the assignees concluded that bioavailability of disodium rose bengal is less than (<) 1% based on radiolabel studies where ^14C-RB in aqueous solution was given orally to mice. In the stomach, with a pH value<4, an HX compound is likely to be in the lactone form.

[6] = tested on: several cancer cell lines; settings: cited from earlier work
[7] = tested on: Apc^Min colorectal tumor model; format: in vivo, mice
Procedure: 26, 2021. […] Presuming a daily drinking water consumption rate of approximately 2 mL/10 g body weight, this corresponds to consumption of approximately 2 mg RB/10 g (200 mg/kg).
Those Apc^min mice are understood to have thereby consumed approximately 8 mg/10 g/day=800 mg/kg/day. That amount is consistent with toxicology data showing such a dose is tolerated.

[8] = tolerated dose in clinical studies of PV-10; format: in vivo, human
Procedure: The classic intravenous (IV) diagnostic assay for liver function using RB was conducted giving 100 mg RB as a single IV dose. In clinical studies of PV-10® aqueous RB disodium solution, RB has been tolerated at 1500 mg delivered IV. The standard adult blood volume is approximately 5 L. Thus, to achieve 100 mg/L in the blood, an adult patient would need to receive approximately 500 mg of RB IV to achieve the IC50 value in the bloodstream.
In clinical studies of PV-10® aqueous RB disodium solution, RB has been tolerated at 1500 mg delivered IL.

[9] = clearance from circulation; cited from earlier work
[10] = fed ad libitum continuously for 2 years, C57BL6N mice; cited from earlier work
[11] = tested on: solid tumors (e.g., melanoma, hepatocellular carcinoma, breast carcinoma); settings: intralesional, intratumoral RB about 25-50 mg/g tumor tissue (25-50 mM); cited from earlier work
[12] = tested on: pediatric solid tumors (neuroblastoma and neuroepithelioma); settings: in vitro contact for 96 hours; cited from earlier work
[13] = 112 mg bolus, 60 kg adult human, 1.9 mg/kg; cited from earlier work
[14] = cited from earlier work
[15] = nude mice; cited from earlier work
[16] = symptomatic mice, 1 mg/mL ad libitum in drinking water

ipilimumab: anti-CTLA-4 monoclonal antibody, immune checkpoint inhibitor
terminal t1/2 [1]: 15.4 days

O=C([O-])c1c(Cl)c(Cl)c(Cl)c(Cl)c1-c1c2cc(I)c(=O)c(I)c-2oc2c(I)c([O-])c(I)cc12.[Na+].[Na+] [RB disodium, 4,5,6,7-tetrachloro-2′,4′,5′,7′-tetraiodofluorescein disodium]
survival of mice treated with lesser amounts ([2]; lesser amounts of HX compound (Cohort II, 12.5 μL PV-10), compared with the 62.5% group): much poorer survival rates
treated leukemic mice that survived for 120 days ([2]; oral gavage twice a week for 2 weeks, higher-dose group (Cohort I, 25 μL PV-10)): 62.5%
survival / therapeutic activity in words ([2]; two treatment groups): dose-dependent survival
behaviour in water solution having the pH value of the human stomach [3]: rapid clouding of the admixture and clumping
bioavailability via the oral route [4]: 0.1-1%
bioavailability [5]: < 1%

CC[C@H](C)[C@@H]([C@@H](CC(=O)N1CCC[C@H]1[C@H](OC)[C@@H](C)C(=O)N[C@H](C)[C@@H](O)c1ccccc1)OC)N(C)C(=O)[C@@H](NC(=O)[C@@H](NC)C(C)C)C(C)C [monomethyl auristatin] (H-[NMeV]V[Dil][Dolaproine]-X1)
IC50 [6]: < 1 nM

O=C1OC2(c3cc(I)c(O)c(I)c3Oc3c2cc(I)c(O)c3I)c2c(Cl)c(Cl)c(Cl)c(Cl)c21 [RB, 4,5,6,7-tetrachloro-2′,4′,5′,7′-tetraiodofluorescein]
effect on onset of disease ([7]; 4 mg/mL ad libitum in drinking water (about 800 mg/kg/day)): arrested onset of disease
estimated concentration of RB in the blood ([7]; mouse, in vivo): 2 to 20 µM
increase in mean survival relative to untreated mice [7, 16]: ~38%
mean survival [7, 16]: 12.3±0.5 weeks
estimated RB in the blood ([2]; assuming 1% bioavailability, intestinal transit 6 hours, blood volume 10 percent of body weight, two treatment groups): 125 to 250 µM
survival / therapeutic activity in words ([2]; two treatment groups): therapeutic activity was observed
dose tolerated ([8]; delivered IL): 1500 mg
dose tolerated ([8]; delivered IV): 1500 mg
circulatory half-time (t1/2) [9]: about 30 minutes
dose well tolerated [10]: 970 mg/kg/day
time until acute tumor cytotoxicity is evident [11]: ≤ 30 min
concentrations demonstrating cytotoxicity [12]: 50 to 100 µM
morbidity after IV bolus [13]: not reported to yield morbidity
pKa value [14]: 2.52
pKa value ([14]; second value): 1.81

Calicheamicin
LD50 [15]: 0.32 mg/kg
